Assay results taken from ChEMBL document CHEMBL1201862, “PubChem BioAssay data set” (2004).
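Interpolation was linear, between the two tested concentrations surrounding the appropriate level; five concentrations were tested over 48 hours in 96-well plates. Here, GI50 denotes the concentration required for 50% inhibition of growth.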 Active and inactive are the calls of the source. Cut-off read from the data, not from the text of the source: active = GI50 up to about 1.1 µM and inactive = higher.

Experiments:
Test in all cases: NCI-60 cell line screen, 48 h
BT-549 = system: BT-549
MCF7 = system: MCF7
HL-60 = system: HL-60
DU-145 = system: DU-145
ACHN = system: ACHN
IGROV-1 = system: IGROV-1
MDA-N = system: MDA-N
SF-295 = system: SF-295
SK-MEL-28 = system: SK-MEL-28
TK-10 = system: TK-10
LOX IMVI = system: LOX IMVI
SF-539 = system: SF-539
MOLT-4 = system: MOLT-4
PC-3 = system: PC-3
M14 = system: M14
Malme-3M = system: Malme-3M
T47D = system: T47D
OVCAR-5 = system: OVCAR-5
EKVX = system: EKVX
CCRF-CEM = system: CCRF-CEM
RPMI-8226 = system: RPMI-8226
A498 = system: A498
RXF 393 = system: RXF 393
HOP-18 = system: HOP-18
SN12C = system: SN12C
HOP-92 = system: HOP-92
HCT-116 = system: HCT-116
HT-29 = system: HT-29
MDA-MB-435 = system: MDA-MB-435
HOP-62 = system: HOP-62
786-0 = system: 786-0
NCI-H23 = system: NCI-H23
M19-MEL = system: M19-MEL
K562 = system: K562
NCI-H226 = system: NCI-H226
NCI-H460 = system: NCI-H460
Hs-578T = system: Hs-578T
SK-OV-3 = system: SK-OV-3
UACC-257 = system: UACC-257
KM-20L2 = system: KM-20L2
DMS-273 = system: DMS-273
COLO 205 = system: COLO 205
UO-31 = system: UO-31
DLD-1 = system: DLD-1
SK-MEL-5 = system: SK-MEL-5
SR = system: SR
HCT-15 = system: HCT-15
SK-MEL-2 = system: SK-MEL-2
KM12 = system: KM12
SNB-75 = system: SNB-75
SW-620 = system: SW-620
SNB-78 = system: SNB-78
OVCAR-8 = system: OVCAR-8
DMS-114 = system: DMS-114
NCI-H522 = system: NCI-H522
CAKI-1 = system: CAKI-1
HCC 2998 = system: HCC 2998
UACC-62 = system: UACC-62
NCI/ADR-RES = system: NCI/ADR-RES
A549 = system: A549
SNB-19 = system: SNB-19
XF498 = system: XF498
U-251 = system: U-251
OVCAR-4 = system: OVCAR-4
OVCAR-3 = system: OVCAR-3
MDA-MB-231 = system: MDA-MB-231
SF-268 = system: SF-268

For `CNC(=O)OCc1nc(SC)n(C)c1COC(=O)NC`, the GI50 (BT-549) was 118 µM (inactive), the GI50 (MCF7) was 132 µM (inactive) and the GI50 (HL-60) was 55.2 µM (inactive). For the same compound, the GI50 (DU-145) was > 81.3 µM (inactive), the GI50 (ACHN) was 64.1 µM (inactive) and the GI50 (IGROV-1) was 175 µM (inactive). For the same compound, the GI50 (MDA-N) was 161 µM (inactive), the GI50 (SF-295) was 187 µM (inactive) and the GI50 (SK-MEL-28) was 188 µM (inactive). For the same compound, the GI50 (TK-10) was 177 µM (inactive), the GI50 (LOX IMVI) was 133 µM (inactive) and the GI50 (SF-539) was 133 µM (inactive). The GI50 (MOLT-4) was 26.4 µM (inactive), the GI50 (PC-3) was 171 µM (inactive) and the GI50 (M14) was 164 µM (inactive). For the same compound, the GI50 (Malme-3M) was 113 µM (inactive), the GI50 (T47D) was 171 µM (inactive) and the GI50 (OVCAR-5) was 170 µM (inactive). The GI50 (EKVX) was 230 µM (inactive), the GI50 (CCRF-CEM) was 44.8 µM (inactive) and the GI50 (RPMI-8226) was 117 µM (inactive). The GI50 (A498) was 198 µM (inactive), the GI50 (RXF 393) was 50.8 µM (inactive) and the GI50 (HOP-18) was 232 µM (inactive). For the same compound, the GI50 (SN12C) was 103 µM (inactive), the GI50 (HOP-92) was 111 µM (inactive) and the GI50 (HCT-116) was 167 µM (inactive). The GI50 (HT-29) was 205 µM (inactive), the GI50 (MDA-MB-435) was 161 µM (inactive) and the GI50 (HOP-62) was 38.5 µM (inactive). For the same compound, the GI50 (786-0) was 139 µM (inactive), the GI50 (NCI-H23) was 130 µM (inactive) and the GI50 (M19-MEL) was 182 µM (inactive). The GI50 (K562) was 147 µM (inactive), the GI50 (NCI-H226) was 83.8 µM (inactive) and the GI50 (NCI-H460) was 59.6 µM (inactive). The GI50 (Hs-578T) was 195 µM (inactive), the GI50 (SK-OV-3) was 63 µM (inactive) and the GI50 (UACC-257) was 103 µM (inactive). For the same compound, the GI50 (KM-20L2) was 177 µM (inactive), the GI50 (DMS-273) was 86.5 µM (inactive) and the GI50 (COLO 205) was 146 µM (inactive). The GI50 (UO-31) was 185 µM (inactive), the GI50 (DLD-1) was 183 µM (inactive) and the GI50 (SK-MEL-5) was 153 µM (inactive). The GI50 (SR) was 71.4 µM (inactive), the GI50 (HCT-15) was 171 µM and the GI50 (SK-MEL-2) was 119 µM (inactive). For the same compound, the GI50 (KM12) was 191 µM (inactive), the GI50 (SNB-75) was 167 µM (inactive) and the GI50 (SW-620) was 172 µM (inactive). For the same compound, the GI50 (SNB-78) was 68.4 µM (inactive), the GI50 (OVCAR-8) was 182 µM (inactive) and the GI50 (DMS-114) was 80.5 µM (inactive). The GI50 (NCI-H522) was 74.1 µM (inactive), the GI50 (CAKI-1) was 87.7 µM (inactive) and the GI50 (HCC 2998) was 122 µM (inactive). The GI50 (UACC-62) was 60.1 µM (inactive), the GI50 (NCI/ADR-RES) was 204 µM (inactive) and the GI50 (A549) was 242 µM (inactive). For the same compound, the GI50 (SNB-19) was 233 µM (inactive), the GI50 (XF498) was 253 µM (inactive) and the GI50 (U-251) was 166 µM (inactive). The GI50 (OVCAR-4) was 129 µM (inactive), the GI50 (OVCAR-3) was 187 µM (inactive) and the GI50 (MDA-MB-231) was 187 µM (inactive). For the same compound, the GI50 (SF-268) was 119 µM (inactive).
